# Data reported in PubChem BioAssay (NCI).
# “And” between values parts separate entries of the source, which are not always exact repeats. Identical values can stand only once.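 Growth conditions: 96-well plates. Treatment: test compound, 48 hours, 5 concentrations. Analysis: linear interpolation between bracketing concentrations; unreached endpoints set to highest concentration. GI50 marks 50% less growth. TGI marks complete inhibition of growth.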
# Legend:
# Experiment in all cases: inhibition of tumour cell growth, NCI panel, 48 h
# [1] = system: SR leukemia
# [2] = system: SNB-19 CNS
# [3] = system: SK-MEL-28 melanoma
# [4] = system: HL-60(TB) leukemia
# [5] = system: HOP-62 NSCLC
# [6] = system: NCI-H522 lung
# [7] = system: IGROV1 ovarian
# [8] = system: SN12C renal
Compound,GI50 [1],TGI [1],GI50 [2],TGI [2],GI50 [3],TGI [3],GI50 [4],TGI [4],GI50 [5],TGI [5],GI50 [6],TGI [6],GI50 [7],TGI [7],GI50 [8],TGI [8]
CCCCNC(=O)Oc1ccc(/C(=C(/C)Cc2ccc(OC)cc2)c2ccc(OCCN3CCCC3)cc2)cc1,1.86 µM,5.44 µM,3.47 µM,11.4 µM,1.83 µM,3.57 µM,1.64 µM,3.82 µM,2.65 µM,11.3 µM,2.02 µM,4.05 µM,2.11 µM,4.52 µM,1.77 µM,3.27 µM
Cc1cc(N2CCCC2)nc(NCc2cc(Nc3ccnc4cc(Cl)ccc34)ccc2F)n1,0.243 µM,,,,1.78 µM,3.48 µM,1.99 µM,4.49 µM,1.46 µM,3.14 µM,1.41 µM,3.09 µM,,,,
CN(C)CC(C(=O)Cc1ccccc1)c1ccccc1 (stereo unspecified),1.24 µM,7.55 µM,15 µM,30 µM,3.22 µM,10.2 µM,1.83 µM,5.75 µM,6.87 µM,21 µM,1.74 µM,3.47 µM,11.6 µM,26.4 µM,3.04 µM,11 µM
CCCCc1n(Cc2ccc3ccccc3c2)cc[n+]1Cc1ccc2ccccc2c1,,,,,1.32 µM,2.69 µM,,,,,,,0.732 µM,2.26 µM,1.09 µM,2.43 µM
CN1CCN(c2nc(NCCCNc3ccnc4cc(Cl)ccc34)c3ccccc3n2)CC1,1.74 µM,6.05 µM,3.77 µM,15.3 µM,2.17 µM,4.22 µM,2.14 µM,4.39 µM,2.81 µM,11.6 µM,3.24 µM,7.7 µM,4.52 µM,18.9 µM,4.97 µM,18 µM
Cc1ccc(C(SCC(N)C(=O)O)(c2ccccc2)c2ccccc2)cc1 (stereo unspecified),0.0724 µM,> 45.8 µM,0.125 µM,> 100 µM,6.5 µM,> 100 µM,0.0878 µM,,0.18 µM,> 49.7 µM,0.0403 µM,85.1 µM,0.141 µM,> 71.3 µM,0.13 µM,> 65.9 µM
C=C(CC(=O)O)C(=O)O (tested in a mixture with another compound),> 50 mg/L,> 50 mg/L,> 50 mg/L,> 50 mg/L,> 50 mg/L,> 50 mg/L,8.94 mg/L,17.2 mg/L,> 50 mg/L,> 50 mg/L,> 50 mg/L,> 50 mg/L,> 50 mg/L,> 50 mg/L,> 50 mg/L,> 50 mg/L
COc1cc(-c2cc(/C=C/C(=O)c3ccc(Cl)c(Cl)c3)[nH]n2)cc(OC)c1OC,0.393 µM,13.5 µM,9.83 µM,> 100 µM,18.1 µM,66 µM,7.18 µM,36.7 µM,1.72 µM,7.66 µM,1.33 µM,3.04 µM,24 µM,> 100 µM,13.7 µM,> 100 µM
CC(C)CC(Nc1c(O)ccc2ccccc12)C(=O)O (stereo unspecified),,> 100 µM,,> 100 µM,,> 100 µM,,> 100 µM,,> 100 µM,,> 100 µM,,> 100 µM,,> 100 µM
C/C(=N\NC(=S)N1CC2CCC(CC2)C1)c1cccc(C)n1,0.21 µM,> 32.9 µM,0.26 µM,14.3 µM,,17.7 µM,0.00016 µM,4.45 µM,0.397 µM,14.2 µM,0.232 µM,0.343 µM and 1.5 µM,,13.9 µM,0.774 µM,12.6 µM
Cc1[nH]c(-c2nc3ccccc3[nH]2)c(C)c1C(=O)NC(C)C1CCCCC1 (stereo unspecified),4.38 µM,34.5 µM,10.6 µM,24.8 µM,10.4 µM,23.5 µM,3.36 µM,13.1 µM,12.7 µM,38.3 µM,13.2 µM,44 µM,6.16 µM,23.9 µM,10.5 µM,26 µM
O=C(O)CCc1c2ccc(=O)c(O)c-2oc2c(O)c(O)ccc12,,> 100 µM,,> 100 µM,,> 100 µM,,> 100 µM,,> 100 µM,,> 100 µM,,> 100 µM,,34.8 µM
O=c1c(Br)cc2c(-c3ccccc3)c3cc(Br)c(O)c(Br)c3oc-2c1Br,,,,> 100 µM,,> 100 µM,,> 100 µM,,> 100 µM,,,,> 100 µM,,> 100 µM
Cc1ccc(C2=C(c3ccccc3)C(c3ccccc3)Oc3ccc(C)cc32)cc1 (stereo unspecified),16.5 µM,38.4 µM,,,,,11 µM,40.7 µM,3.09 µM,7.71 µM,2.28 µM,5.63 µM,2.49 µM,7.1 µM,17.3 µM,34.3 µM
O=C1C(=O)c2ccccc2C(O)=C1CCCc1ccc(C2CCCCCC2)cc1,1.77 µM,> 100 µM,0.803 µM,> 100 µM,5.04 µM,> 93.3 µM,0.698 µM,11.1 µM,1.27 µM,27.3 µM,2.64 µM,32.7 µM,0.486 µM,5.89 µM,2.12 µM,> 100 µM
CC(C)n1nc(-c2ccc3oc(N)nc3c2)c2c(N)ncnc21,0.0284 µM and < 0.0112 µM,3.84 µM,0.0336 µM and 0.027 µM,1.94 µM and 1.33 µM,< 0.0108 µM,0.189 µM,0.0869 µM and 0.168 µM,12.3 µM and 11.2 µM,0.0198 µM and 0.0212 µM,0.793 µM and 0.435 µM,< 0.01 µM,15.3 µM and 1.76 µM,< 0.01 µM,0.0554 µM and 0.277 µM,< 0.0114 µM and 0.0113 µM,2.69 µM and 8.69 µM
NC(N)=Nc1nc2ccc([N+](=O)[O-])cc2[nH]1,,> 100 µM,,> 100 µM,,> 100 µM,,> 100 µM,,> 100 µM,,> 100 µM,,> 100 µM,,> 100 µM
COc1c(-c2ccc(O)c(O)c2)oc2c(O)c(O)cc(O)c2c1=O,,50.8 µM,,> 100 µM,,> 100 µM,,,,67.4 µM,,> 100 µM,,70.7 µM,,31 µM
